According to ChEMBL document CHEMBL1201862, “PubChem BioAssay data set” (2004):
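Where inhibition never reached the appropriate level, the endpoint shown equals the highest concentration tested. Otherwise, values were interpolated linearly from a five-concentration, 48-hour dose response in 96-well plates. Abbreviation: GI50, concentration required for 50% inhibition of growth.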 Activity calls are given as the source filed them. Rule as the data show it: active = GI50 up to about 1.1 µM and inactive = higher.

Columns and labels:
Test in all cases: NCI anticancer screen, dose series, 48 h
[1] = system: TK-10
[2] = system: OVCAR-8
[3] = system: SW-620
[4] = system: M14
[5] = system: SNB-19
[6] = system: EKVX
[7] = system: NCI-H460
[8] = system: HOP-62
[9] = system: HT-29
[10] = system: SN12C
[11] = system: SF-539
[12] = system: OVCAR-4
[13] = system: SF-295
[14] = system: RPMI-8226
[15] = system: UO-31
[16] = system: OVCAR-3
[17] = system: NCI-H226

Measured: GI50

COc1ccc(OC(C(=O)O)c2ccccc2)c2c1CCCC2=O (stereo unspecified)
inactive: [1] > 100 µM | [2] > 100 µM | [3] > 100 µM | [4] > 100 µM | [5] > 100 µM | [6] > 100 µM | [7] > 100 µM | [8] > 100 µM | [9] > 100 µM | [10] > 100 µM | [11] > 100 µM | [12] > 100 µM | [13] > 100 µM | [14] > 100 µM | [15] > 100 µM | [16] > 100 µM

c1ccc(C2=NOC3COc4ccccc4OCC23)cc1 (stereo unspecified)
inactive: [1] > 100 µM | [2] > 100 µM | [3] > 100 µM | [4] > 100 µM | [5] > 100 µM | [6] > 100 µM | [7] > 100 µM | [8] > 100 µM | [9] > 100 µM | [10] > 100 µM | [11] > 100 µM | [12] > 100 µM | [13] > 100 µM | [14] > 100 µM | [15] 77.1 µM | [16] > 100 µM

Cc1cccc2c1C/C(=C1\CCc3c(C)cccc31)C2=O
inactive: [1] > 100 µM | [2] > 100 µM | [3] > 100 µM | [4] > 100 µM | [5] > 100 µM | [6] > 100 µM | [7] > 100 µM | [8] > 100 µM | [9] > 100 µM | [17] > 100 µM | [10] > 100 µM | [12] 52.6 µM | [13] > 100 µM | [15] > 100 µM | [16] > 100 µM

COc1ccc(NC(=O)C(C)Oc2ccc(OCC3CCCCC3)cc2)cc1 (stereo unspecified)
inactive: [1] > 100 µM | [2] > 100 µM | [4] 70.3 µM | [5] > 100 µM | [7] 45.8 µM | [9] > 100 µM | [17] > 100 µM | [10] > 100 µM | [11] > 100 µM | [12] 94 µM | [15] 51.4 µM | [16] 62.5 µM

c1ccc(CN(Cc2ccccn2)Cn2cccn2)nc1
inactive: [1] > 100 µM | [2] 32.8 µM | [3] 48 µM | [4] 25.9 µM | [5] > 100 µM | [6] 34.9 µM | [7] 41.2 µM | [8] > 100 µM | [10] 47.9 µM | [11] > 100 µM | [12] > 100 µM | [13] 62.7 µM | [14] 28.9 µM | [15] 79.6 µM | [16] > 100 µM

CCOC(=O)N1C/C(=C\c2ccc(N(C)C)cc2)C(=O)/C(=C/c2ccc(N(C)C)cc2)C1
inactive: [1] > 100 µM | [2] > 100 µM | [3] > 100 µM | [4] > 100 µM | [5] > 100 µM | [6] > 100 µM | [7] > 100 µM | [8] > 100 µM | [9] > 100 µM | [10] > 100 µM | [11] > 100 µM | [12] > 100 µM | [13] > 100 µM | [14] > 100 µM | [15] > 100 µM | [16] > 100 µM

CN(C)c1ccc(/C=C(\NC(=O)c2ccccc2)c2nc3ccc4c(c3[nH]2)C(=O)c2ccccc2C4=O)cc1
inactive: [1] 17.1 µM | [2] 37.4 µM | [3] 33.2 µM | [4] 53.8 µM | [5] > 100 µM | [6] 48.1 µM | [7] 29.1 µM | [8] 61.9 µM | [9] 69.3 µM | [10] 34 µM | [11] 36.5 µM | [12] 47.2 µM | [13] 46.6 µM | [14] 3.18 µM | [15] 1.33 µM | [16] 32.2 µM
